The subject of data set [1] is HIV-1 (IIIB) strain. Description: Anti-HIV activity: inhibition of MT-4 cell death by HIV infection (MTT method). The note with it: for EC50: MT-4 CD4+ T cells infected by HIV-1 (IIIB), 37° C., 5 days, MTT, average of at least three measurements, read-out: EC50 (concentration where MT-4 cell death by HIV infection is inhibited by 50%). It counts as cell-based.
For data set [2], the system named is virus-uninfected MT-4 cells. Description: Cytotoxicity Test I: virus-uninfected MT-4 cells, MTT method. It counts as cell-based. Particulars: for SI: CC50 (Test I)/EC50: selective index, MT-4 CC50 over anti-HIV EC50. Here is the method: (§1) HIV-1 (IIIB) strain obtained from MOLT/HIV-1 (IIIB) cell previously infected by HIV-1 was used. The polypeptide of the present invention was added to MT-4 CD4^+ T cells infected by HIV in various kinds of concentrations, and a number of living cells after culturing at 37° C. for 5 days was determined by using a 3′-(4,5-dimethylthiazol-2-yl)-2,5-diphenyltetrazolinium bromide (MTT) method. Anti-HIV activity is shown by a concentration (EC50 value), where MT-4 cell death by HIV infection is inhibited by 50%. Cytotoxicity of the peptide according to the present invention was shown by a 50% survival concentration (Test I: CC50 value) by culturing virus-uninfected MT-4 cells with the polypeptide according to the present invention in various concentrations, and determining a number of living cells by the MTT method. Moreover, a number of living cells of human peripheral blood mononuclear cells (monocyte) (PBMC) was determined by trypan blue dyeing method, and shown by a 50% survival concentration (Test II: CC50 value). Respective ratios of the CC50 value and the EC50 value were shown as a selective index (SI). Obtained values were summarized in Table 3 using the conventionally known polypeptides T134 and T140, and an anti-HIV compound: 3′-azido-2′,3′-dideoxythymidine (AZT) used as a medicine as a control anti-HIV agent.

Test in data set [3]: as above
In kind it is cell-based. The note with it: human, virus-uninfected MT-4 cells, MTT method, read-out: CC50 (Test I), 50% survival concentration. As for the experimental part:
as §1

In data set [4] the test system is human peripheral blood mononuclear cells (PBMC). Description: Cytotoxicity Test II: human PBMC, trypan blue dyeing method. In kind it is cell-based. The note with it: selective index, PBMC CC50 over anti-HIV EC50.
Test in data set [5]: as above
The note with it: human PBMC, trypan blue dyeing method, read-out: CC50 (Test II), 50% survival concentration. It counts as cell-based.

A short description of data set [6]: in vitro. In kind it is in vitro ADME, cat. The note with it: serum. Here is the method: T140 or TC14012 was dissolved in cat serum (100 μL/100 μL Water) in an amount of 100 nmol, and maintained at 37° C. Each 8 μL of the respective samples were collected after 0 hour, 1 hour, 2 hours, 5 hours and 16 hours, and analyzed by reverse phase HPLC using 16% acetonitrile.

Read-outs that look alike come from different tables or passages of the source. Where a SMILES comes first, the peptide text is derived from it. Bridges are numbered along the chain shown (N, C = ends). [ ]: non-standard residue; d: D form. 2Nal = N[C@@H](Cc1ccc2ccccc2c1)C(=O)O; Cit = NC(=O)NCCC[C@H](N)C(=O)O

For the compound `Cc1cn([C@H]2C[C@H](N=[N+]=[N-])[C@@H](CO)O2)c(=O)[nH]c1=O` [AZT, 3′-azido-2′,3′-dideoxythymidine, reference compound], in data set [1] (Human immunodeficiency virus 1, MT4, 120 h), the EC50 was 0.048 µM. The “SI: CC50 (Test I)/EC50” value in data set [2] is 4000. The CC50 was 190 µM in data set [3] and less than 20 µM in data set [5] (peripheral blood mononuclear cells (PBMC)). In data set [4], the “SI: CC50 (Test II)/EC50” value is reported as less than 410.
For the compound `NCCCC[C@@H]1NC(=O)[C@H](CCCN=C(N)N)NC(=O)[C@H](Cc2ccc(O)cc2)NC(=O)[C@@H](NC(=O)[C@H](Cc2ccc3ccccc3c2)NC(=O)[C@H](CCCN=C(N)N)NC(=O)[C@@H](N)CCCN=C(N)N)CSSC[C@@H](C(=O)N[C@@H](CCCN=C(N)N)C(=O)O)NC(=O)[C@H](CCCNC(N)=O)NC(=O)[C@H](CCCN=C(N)N)NC(=O)[C@H](Cc2ccc(O)cc2)NC(=O)[C@@H]2CCCN2C(=O)[C@@H](CCCCN)NC1=O` [Compound T140, H-Arg-Arg-Nal-Cys-Tyr-Arg-Lys-DLys-Pro-Tyr-Arg-Cit-Cys-Arg-OH, reference compound] (H-RR[2Nal]CYRK[dK]PYR[Cit]CR-OH; disulfide 4-13), the metabolised at 16 h, 0.5 mM in data set [6] was roughly 70%. The “SI: CC50 (Test I)/EC50” value in data set [2] is >>300. Besides, the figures for the CC50 in data set [3] (MT-4 cells (virus-uninfected)) and in data set [5] were greater than 1 µM and 96 µM, respectively. Also, the “SI: CC50 (Test II)/EC50” value in data set [4] was found to be 29000.
On to `NCCCC[C@@H]1NC(=O)[C@H](CCCN=C(N)N)NC(=O)[C@H](Cc2ccc(O)cc2)NC(=O)[C@@H](NC(=O)[C@H](Cc2c[nH]c3ccccc23)NC(=O)[C@H](CCCN=C(N)N)NC(=O)[C@@H](N)CCCN=C(N)N)CSSC[C@@H](C(=O)N[C@@H](CCCN=C(N)N)C(=O)O)NC(=O)[C@H](CCCNC(N)=O)NC(=O)[C@H](CCCN=C(N)N)NC(=O)[C@H](Cc2ccc(O)cc2)NC(=O)[C@@H]2CCCN2C(=O)[C@@H](CCCCN)NC1=O` [Compound T134, H-Arg-Arg-Trp-Cys-Tyr-Arg-Lys-DLys-Pro-Tyr-Arg-Cit-Cys-Arg-OH, reference compound] (H-RRWCYRK[dK]PYR[Cit]CR-OH; disulfide 4-13), for which, in data set [2], the “SI: CC50 (Test I)/EC50” value was >>120. The CC50 was greater than 1 µM in data set [3] (MT-4 cells (virus-uninfected)) and 190 µM in data set [5]. In data set [4], the “SI: CC50 (Test II)/EC50” value was found to be 23000.
With `NCCCC[C@@H]1NC(=O)[C@H](CCCN=C(N)N)NC(=O)[C@H](Cc2ccc(O)cc2)NC(=O)[C@@H](NC(=O)[C@H](Cc2ccc3ccccc3c2)NC(=O)[C@H](CCCN=C(N)N)NC(=O)[C@@H](N)CCCN=C(N)N)CSSC[C@@H](C(=O)N[C@@H](CCCN=C(N)N)C(=O)O)NC(=O)[C@H](CCCNC(N)=O)NC(=O)[C@H](CCCN=C(N)N)NC(=O)[C@H](Cc2ccc(O)cc2)NC(=O)[C@@H]2CCCN2C(=O)[C@@H](CCCNC(N)=O)NC1=O` [TC14005, H-Arg-Arg-NaI-Cys-Tyr-Arg-Lys-DCit-Pro-Tyr-Arg-Cit-Cys-Arg-OH], the EC50 in data set [1] was determined as 0.004 µM. In addition, the “anti-HIV activity in words, compared with T140” value in data set [1] (conclusion drawn from Table 3) is “substantially the same anti-HIV activity as that of the conventionally known T140”. In data set [2] (conclusion drawn from Table 3), the “cytotoxicity in words, compared with conventional T134/T140” value was “cytotoxicity is markedly lowered”. The “SI: CC50 (Test I)/EC50” value in data set [2] was greater than 20000. Moreover, the CC50 in data set [3] (MT-4 cells (virus-uninfected)) was greater than 80 µM; in data set [5], 280 µM. Also, the “SI: CC50 (Test II)/EC50” value in data set [4] came to 69000.

The values are drawn from patent publication US8435939B2, “Polypeptide anti-HIV agent containing the same” (priority 2000, dated 2013).
